According to patent US9593154B2, “Engineered polypeptides having enhanced duration of action” (AMYLIN PHARMACEUTICALS, LLC, priority 2010, dated 2017):

What was measured:
diabetic ob/ob mice = experiment: Chronic exposure in diabetic ob/ob mice (twice weekly, 28 days); format: in vivo, mouse
Description: The time course of the effect of the test compound on body weight, glucose lowering and HbA1c lowering in ob/ob mice was investigated post dose, with values at 4 weeks presented in FIGS. 11A, 11B, 11C and 11D. […] Points represent mean±s.d. (standard deviation). Each test compound was injected IP on day=0 immediately following baseline sample collection in non-fasted male ob/ob mice. The effects observed for the 25 nmol/kg biw (twice weekly) dose was greater than that observed for exendin-4 given at ˜7.2 nmol/kg/d by continuous infusion (CSI), a dose known to provide a maximal efficacy for exendin-4. […] Unless indicated otherwise, blood glucose measures described herein employed a OneTouch® Ultra® device (LifeScan, Inc. Miliptas, Calif.).

[1] = Stability in human plasma; format: in vitro ADME; settings: 10 μg/ml in human plasma, 37 degrees C, 5 hours; normalized to a standard (100%)
db/db mice = experiment: Oral delivery (gavage) in diabetic db/db mice, blood glucose; settings: PBS/propylene glycol (50:50)
NIH/Swiss female mice = experiment: OGTT DOA (oral glucose tolerance test for duration of action); format: in vivo, mouse; settings: for % Glucose Lowering Compared to Vehicle: 25 nmol/kg IP at t=-1 day, glucose gavage 1.5 g/kg at t=0, blood glucose at 30 min, 24 hours post dose
Description: In vivo assays for activity and duration of action and pharmacokinetics can be done using known methods. For example, duration can be performed using an oral glucose tolerance test (OGTT) in which the drug is administered to the subject at a desired time point before the glucose is administered orally (to measure drug duration of action; OGTT DOA) and glucose blood levels are measured (e.g. readily done in mice). Activity and duration can also be measured using an intravenous glucose tolerance test (IVGTT) in which the drug is administered to the subject at a desired time point before the glucose is administered IV (IVGTT DOA) and blood glucose levels are measured (e.g. can readily be done in rats). Preferred engineered compounds have a desired effect on blood glucose of at least 24 hours duration after a single dose of drug, preferably at least 3 days, at least 4 days, at least 5 days, at least 6 days, and at least 1 week after the single dose of drug is given.
The effects on blood glucose prior to glucose gavage ([…]) and at 30 minutes post-glucose gavage were investigated 1 day post dose of peptide compound with varying amounts of Cmpd 15, with results shown in FIGS. 1A-1B. Bars represent mean±sd. Peptide was injected IP at t=−1 day. Glucose gavage (1.5 g/kg) given at t=0 to 4-hour fasted NIH/Swiss female mice. Blood glucose was measured with a OneTouch® Ultra® (LifeScan, Inc., a Johnson & Johnson Company, Milpitas, Calif.) * p<0.05 vs. vehicle control; ANOVA, Dunnett's test. This OGTT DOA indicates drug activity is present at least 24 hours after drug was administered. Exendin-4 (unconjugated) was ineffective in this assay when dosed at t-24 hours (1 day prior to the glucose assay), and even at higher doses.
The effects on blood glucose prior to gavage ([…]) and at 30 min were investigated 2 day post dose with varying amounts of Cmpd 15, with results shown in FIGS. 2A-2B. This OGTT DOA indicates drug activity is present at least 48 hours after drug was administered.
A comparison of the effects of Cmpds 15 and 8 on blood glucose was conducted, with results depicts in FIGS. 3A-3B. This OGTT DOA indicates drug activity is present at least 24 hours after drug was administered.
The effects of Cmpds 15, 8 and 10 on the change in blood glucose at 30 min (% pre-gavage) was investigated, as depicted in FIG. 7. In the figure, bars represent mean±s.d. Test compound was injected IP at t=−1 day. Glucose gavage (1.5 g/kg) given at t=0 to 4 hr fasted NIH/Swiss female mice. Blood glucose was measured as described herein. This OGTT DOA indicates drug activity is present at least 24 hours after drug was administered.
The effects of compounds disclosed herein on the change in blood glucose at 30 min (% pre-gavage) were investigated as described above. Test compound was injected IP at t=−1 day at 25 nmol/kg. Glucose gavage (1.5 g/kg) given at t=0 to 4 hr fasted NIH/Swiss female mice. Blood glucose was measured as described herein. This OGTT DOA indicates drug activity is present at least 24 hours after drug was administered. […] Exendin-4 (unconjugated) was ineffective in this assay when dosed at t-24 hours, and even at higher doses. […] Cmpd 22 with an albumin binding sequence the PAB protein from P. magnus had little if any […] (3%) in the above assay.

[2] = test system: renal cortical tubular epithelial cells; experiment: Kidney vacuolization histopathology; format: in vivo, mouse; settings: C57BL6 female mice, sc injection days 0-6, sacrifice day 7
Description: With some drugs, such as some pegylated proteins, undesirable vacuoles can form in cytoplasm of epithelial cells lining the proximal convoluted tubules, which is an undesirable toxicity measure. […] C57BL6 female mice (n=2 cages, 3 mice/cage) were weighed daily 3 hours prior to lights out. Immediately after weighing, on days 0-6 mice were injected subcutaneously with test compound. Mice were sacrificed on day 7 and kidneys submitted for histopathology. […] A positive control compound known to cause vacuole formation was scored as 3. The ABD polypeptide itself scored 0. Cmpd 15 scored 0.

ob/ob mice = experiment: Effect on body weight, glucose and HbA1c in ob/ob mice after single sc dose; format: in vivo, mouse; settings: non-fasted male ob/ob mice; Cmpd 15 at 250 nmol/kg sc on day 0
Description: The time course of the effect of Cmpd 15 on body weight, glucose and HbA1c in ob/ob mice was investigated post dose. […] Changes in glucose (% pre-treatment) and in HbA1c (% pre-treatment) are depicted in FIGS. 5B-5C. Points represent mean±s.d. (standard deviation). Cmpd 15 was injected sc on day=0 immediately following baseline sample collection in non-fasted male ob/ob mice. Unless indicated otherwise, blood glucose measures described herein employed a OneTouch® Ultra® device (LifeScan, Inc. Miliptas, Calif.).

[3] = Pharmacokinetic profile after subcutaneous dosing in normal HSD rats; format: in vivo, rat; settings: 25 nmol/kg single dose
Description: Blood was collected via tail bleed at t=1 hour, 3 hours, 6 hours, 24 hours, 48 hours, 72 hours, 96 hours and 168 hours from fed HSD male rats. Food and body weights were measured daily. […] Points represent mean±sd.

[4] = test system: human kidney brush border membrane protein extracts; experiment: Human kidney brush border membrane (KBBM) stability assay; format: in vitro ADME; settings: hKBBM, 30 microM peptide, 37 degrees C, 5 hours; relative to positive control
Description: Relative stability of representative peptides in a human kidney brush border membrane (KBBM) assay was performed as follows. Human kidney brush border membrane protein extracts are rich in various peptidases. […] In a separate vial, peptide stock solution (300 microM in 50% acetonitrile in water) was prepared and 70 microL of this solution was added to the above hKBBMP solution. The solution was gently mixed by manual shaking so that the final peptide concentration is 30 microM. Then 100 microL of this solution was aliquoted into six different tubes and into one tube 200 microL of enzyme stop solution (50% acetonitrile in water with 0.1% TFA) was added. This tube was used for the measurement of the initial peptide concentration at time t=0 minute while all other 5 tubes were incubated at 37 degrees C. using a water bath. At intervals of 1, 2, 3, 4 and 5 hour, each tube was taken out and quenched with 200 microL of stop solution. Finally, all six tubes were centrifuged at 1800×g for 10 min to remove any precipitated proteins. The supernatant (10 microL) was transferred into an HPLC auto sampler, and by using selected ion count method AUC was measured. Each sample was run in triplicates and average AUC was calculated for data analysis. Sample analysis was done on Agilent HPLC with mass detector with an acetonitrile with 0.1% TFA gradient. […]

[5] = 25 and 250 nmol/kg IP twice each week for 28 days

**Q.** Which “effects compared to maximally efficacious dose of exendin-4 (7.2 nmol/kg/d CSI)” value (diabetic ob/ob mice; 25 nmol/kg biw, comparable equimolar dose) does the source give for “HGEGTFTSDLSKQLEEEAVRLFIEWLKQGGPSKEIISTGGGGSASLAEAKVLANRELDKYGVSDFYKRLINKAKTVEGVEALKLHILAALP [Cmpd 15]” here?
**A.** Its value is “exceeded the glycemic and body weight loss effects of the maximally efficacious dose of exendin-4”.

**Q.** And the “effects compared to maximally efficacious dose of exendin-4” value (diabetic ob/ob mice; 250 nmol/kg biw)?
**A.** The value was “significantly greater”.

**Q.** And the “HbA1c lowering (% change from baseline)” value (diabetic ob/ob mice; [5])?
**A.** Its value is “significant HbA1c lowering”.

**Q.** What about the “body weight loss (% change from baseline)” value (diabetic ob/ob mice; [5]) of the same molecule?
**A.** Its value is “significant body weight loss”.

**Q.** What about the “HbA1c lowering and body weight loss compared to liraglutide” value (diabetic ob/ob mice; equimolar dosing to liraglutide, data not shown) of the same molecule?
**A.** The value was “more effective than liraglutide”.

**Q.** And the “glucose lowering compared to liraglutide” value (diabetic ob/ob mice; equimolar dosing, twice weekly (BIW), chronic exposure)?
**A.** The value was “superior to liraglutide”.

**Q.** And the “Percent Stable in Human Plasma” value [1]?
**A.** The value was 96.0%.

**Q.** What about the “blood glucose lowering activity after oral dosing” value (db/db mice; 240 nmol/kg peroral gavage, to 120 minutes, 2-hour fasted db/db mice) of the same molecule?
**A.** The value was “active when dosed orally”.

**Q.** What about the oral bioavailability (db/db mice; peroral gavage, 1 mg/kg) of the same molecule?
**A.** Its oral bioavailability is “orally bioavailable”.

**Q.** And the “% Glucose Lowering Compared to Vehicle” value (NIH/Swiss female mice)?
**A.** The value was −21%.

**Q.** And the “Severity score for cytoplasmic vacuolation of renal cortical tubular epithelial cells” value [2]?
**A.** Its value is 0.

**Q.** What about the “effect on body weight” value (ob/ob mice) of the same molecule?
**A.** The value was “significant body weight loss”.

**Q.** And the apparent half-life [3]?
**A.** Its apparent half-life is 54 h.

**Q.** With “HGEGTFTSDLSKQLEEEAVRLFIEWLKQGGPSKEIISTGGGGSGGGSGGGSGGGSASLAEAKVLANRELDKYGVSDFYKRLINKAKTVEGVEALKLHILAALP [Cmpd 8]” as the molecule, how does the “% Glucose Lowering Compared to Vehicle” value (NIH/Swiss female mice) read?
**A.** The value was −21%.

**Q.** With “HGEGTFTSDLSKQMEEEAVRLFIEWLKNTGGGGSASLAEAKVLANRELDKYGVSDFYKRLINKAKTVEGVEALKLHILAALP [Cmpd 10]” as the molecule, how does the “% Glucose Lowering Compared to Vehicle” value (NIH/Swiss female mice) read?
**A.** Its value is −22%.

**Q.** For “HGEGTFTSDLSKQMEEEAVRLFIEWLKNGGSLAEAKVLANRELDKYGVSDFYKRLINKAKTVEGVEALKLHILAALP [Cmpd 32]”, which “glucose lowering activity when dosed 24 hours before the OGTT (in words)” value (NIH/Swiss female mice; dosed IP at t=-1 day) is on record?
**A.** The value was “no glucose lowering”.

**Q.** Which “% Glucose Lowering Compared to Vehicle” value (NIH/Swiss female mice) does the source give for “HGEGTFTSDLSKQLEEEAVRLFIEWLKQGGPSKEIISGGSLAEAKVLANRELDKYGVSDFYKRLINKAKTVEGVEALKLHILAALP [Cmpd 33]” here?
**A.** The value was −19%.

**Q.** Which “Percent Stable in Human Plasma” value [1] does the source give for `CC[C@H](C)[C@H](NC(=O)[C@H](Cc1ccccc1)NC(=O)[C@H](CCC(=O)O)NC(=O)[C@H](CCCCN)NC(=O)[C@H](C)NC(=O)[C@H](C)NC(=O)[C@H](CCC(N)=O)NC(=O)CNC(=O)[C@H](CCC(=O)O)NC(=O)[C@H](CC(C)C)NC(=O)[C@H](Cc1ccc(O)cc1)NC(=O)[C@H](CO)NC(=O)[C@H](CO)NC(=O)[C@@H](NC(=O)[C@H](CC(=O)O)NC(=O)[C@H](CO)NC(=O)[C@@H](NC(=O)[C@H](Cc1ccccc1)NC(=O)[C@@H](NC(=O)CNC(=O)[C@H](CCC(=O)O)NC(=O)[C@H](C)NC(=O)[C@@H](N)Cc1c[nH]cn1)[C@@H](C)O)[C@@H](C)O)C(C)C)C(=O)N[C@@H](C)C(=O)N[C@@H](Cc1c[nH]c2ccccc12)C(=O)N[C@@H](CC(C)C)C(=O)N[C@H](C(=O)N[C@@H](CCCCN)C(=O)NCC(=O)N[C@@H](CCCNC(=N)N)C(N)=O)C(C)C` [GLP-1(7-36) amide, reference compound] here?
**A.** The value was 41.7%.

**Q.** And the “Percent Stable” value [4]?
**A.** The value was 16%.
